Data taken from patent US20120015012A1, “COSMETIC COMPOSITION CONTAINING KETOGLUCONIC ACID DERIVATIVES” (SOLIANCE, priority 2009, published 2012).
Where a name gives a salt, the structure may show the parent alone. Marks after values point to notes of the source that are not given here.

Key:
[1] = test system: normal adult human dermal fibroblasts; experiment: Neosynthesis of hyaluronic acid in normal adult human dermal fibroblasts cultured in monolayers (ELISA on culture media); assay type: cell-based; details: incubation 24 hours
Description: (§1) Confluent monolayers of normal human dermal fibroblasts were obtained by culturing cells obtained from abdominoplasty performed on a person. The fibroblasts were isolated by enzymatic digestion using Dispase and collagenase and were then cultured in DMEM (Dulbecco's Modified Eagle's Medium) and Ham's F12 medium in (1:1) ratio containing 10% of fetal calf serum, antibiotics and amphotericin B.
The reference activator used is transforming growth factor β (TGF-β) at a concentration of 10 ng/ml.
(§2) The fibroblasts were incubated for 24 hours at 37° C., under a humid atmosphere and 5% CO2, in the absence (culture medium only) or in the presence of the reference product, or of increasing concentrations of test products (10, 100 and 1000 μg/ml) for both products. The test products were dissolved directly in the culture medium.
At the end of the incubation period, the hyaluronic acid contained in the culture media was quantified using a sensitive and specific ELISA kit.
At the end of the incubation period, the proteins contained in the cellular lysates were quantified by Bradford's spectrocolorimetric method.
The results are given in the form of ng of hyaluronic acid per μg of total proteins of the cell lawn (mean±standard deviation, SD). The statistical significance of the differences observed between the “Control” and “Reference Product” conditions was evaluated by a Student test (Student t-test). The statistical significance of the differences observed between the “Control” and “Test Products” conditions was evaluated product by product, by a one-way analysis of variance (One Way ANOVA or One Way Anova on Ranks+), followed, when necessary, by a Holm-Sidak or Dunn's test (*: p<0.05).

[2] = test system: normal adult human dermal fibroblasts; experiment: Neosynthesis of elastin in normal adult human dermal fibroblasts cultured in monolayers (spectrocolorimetric method on culture media); assay type: cell-based; details: incubation 96 hours; for increase in the neosynthesis of elastin: versus control
Description: as §1, with “The fibroblasts are isolated by” for “The fibroblasts were isolated by”, “collagenase and then cultivated” for “collagenase and were then cultured”, “and then cultivated in DMEM” for “were then cultured in DMEM”
The reference activator used is ascorbic acid at a concentration of 100 μg/ml.
as §2, with “96” for “24”, “under” for “under a”, “(10;” for “(10,”
At the end of the incubation time, the elastin contained in the culture media was quantified by a spectrocolorimetric method.
At the end of the incubation time, the proteins contained in the cellular lysates were quantified by Bradford's spectrocolorimetric method.
The results are given in the form of ng of elastin per μg of total proteins of the cell lawn (mean±standard deviation, SD). The statistical significance of the differences observed between the “Control” and “Reference Product” conditions was evaluated by a Student test (Student t-test). The statistical significance of the differences observed between the “Control” and “Test Products” conditions was evaluated product by product, by a one-way analysis of variance (One Way ANOVA or One Way Anova on Ranks+), followed, when necessary, by a Holm-Sidak or Dunn's test (*: p<0.05).

## O=C(O)C(=O)C(O)C(O)C(O)CO (stereo not shown) [2KO, calcium salt of 2-keto-(D)-gluconic acid]
[1]; 10 μg/ml
  production of hyaluronic acid, % control: 101.2 % control
  production of hyaluronic acid, mean value: 18.5 ng of hyaluronic acid per μg of total proteins
[1]; 100 μg/ml
  production of hyaluronic acid, % control: 136.3 % control
  production of hyaluronic acid, mean value: 25.0* ng of hyaluronic acid per μg of total proteins
[1]; 100 μg/ml, versus control
  increase in the neosynthesis of hyaluronic acid: 36.3%
[1]; 1000 μg/ml
  production of hyaluronic acid, % control: 192.7 % control
  production of hyaluronic acid, mean value: 35.3* ng of hyaluronic acid per μg of total proteins
[1]; 1000 μg/ml, versus control
  increase in the neosynthesis of hyaluronic acid: 92.7%
[2]; 10 μg/ml
  production of elastin, % control: 139.7 % control
  production of elastin, mean value: 12.6* ng of elastin per μg of total proteins
  increase in the neosynthesis of elastin: 39.7%
[2]; 100 μg/ml
  production of elastin, % control: 144.6 % control
  production of elastin, mean value: 13.1* ng of elastin per μg of total proteins
  increase in the neosynthesis of elastin: 44.6%
[2]; 1000 μg/ml
  production of elastin, % control: 135.8 % control
  production of elastin, mean value: 12.3* ng of elastin per μg of total proteins
  increase in the neosynthesis of elastin: 35.8%

## O=C([O-])C(O)C(O)C(O)C(=O)CO.[K+] (stereo not shown) [5KO, potassium salt of 5-keto-(D)-gluconic acid]
[1]; 10 μg/ml
  production of hyaluronic acid, % control: 123.3 % control
  production of hyaluronic acid, mean value: 22.6* ng of hyaluronic acid per μg of total proteins
[1]; 10 μg/ml, versus control
  increase in the neosynthesis of hyaluronic acid: 23.3%
[1]; 100 μg/ml
  production of hyaluronic acid, % control: 144.9 % control
  production of hyaluronic acid, mean value: 26.6* ng of hyaluronic acid per μg of total proteins
[1]; 100 μg/ml, versus control
  increase in the neosynthesis of hyaluronic acid: 44.9%
[1]; 1000 μg/ml
  production of hyaluronic acid, % control: 144.0 % control
  production of hyaluronic acid, mean value: 26.4* ng of hyaluronic acid per μg of total proteins
[1]; 1000 μg/ml, versus control
  increase in the neosynthesis of hyaluronic acid: 44.0%
[2]; 10 μg/ml
  production of elastin, % control: 104.8 % control
  production of elastin, mean value: 9.5 ng of elastin per μg of total proteins
[2]; 100 μg/ml
  production of elastin, % control: 118.9 % control
  production of elastin, mean value: 10.7 ng of elastin per μg of total proteins
  increase in the neosynthesis of elastin: 18.9%
[2]; 1000 μg/ml
  production of elastin, % control: 184.4 % control
  production of elastin, mean value: 16.7* ng of elastin per μg of total proteins
  increase in the neosynthesis of elastin: 84.4%

## O=C1O[C@H]([C@@H](O)CO)C(O)=C1O [Ascorbic acid, ascorbic acid, reference compound]
[2]; 100 μg/ml
  production of elastin, % control: 140.3 % control
  production of elastin, mean value: 12.7*** ng of elastin per μg of total proteins
  increase in the neosynthesis of elastin: 40.3%

## TGF-β: reference activator, transforming growth factor β (TGF-β), used at 10 ng/ml [reference compound]
[1]; 10 ng/ml
  production of hyaluronic acid, % control: 226.3 % control
  production of hyaluronic acid, mean value: 41.5*** ng of hyaluronic acid per μg of total proteins
[1]; 10 ng/ml, versus control
  increase in fibroblast production of hyaluronic acid: 126.3%
